Test results published in paper PMC8560897, “Bioevaluation and Targeted Modification of Temporin-FL From the Skin Secretion of Dark-Spotted Frog (Pelophylax nigromaculatus)” (Frontiers in Molecular Biosciences, 2021).
No end group written: not given here.

Experiments:
S. aureus (NCTC 10788) = type: cell-based, Staphylococcus aureus; conditions: NCTC 10788, 18 h
Method: (§1) Antimicrobial activity was evaluated by assessing minimal inhibitory concentrations (MICs) and minimal bactericidal concentrations (MBCs). The tested microorganisms comprised three Gram-positive bacterial strains, namely S. aureus (NCTC 10788) and MRSA strains (NCTC 12493 and ATCC 43300), E. coli (NCTC 10418), which is a Gram-negative bacterial strain, and C. albicans (NCYC 1467), a yeast species. Standard microbes were cultured in Muller-Hinton Broth (MHB) and suspended to obtain 5 × 10^5 CFU/ml. Subsequently, the equal volume microorganisms solutions were treated with a 2-fold dilution of peptides, the final concentration of the peptides ranged between 512 and 1 μM. The positive control of bacteria strains S. aureus, MRSA NCTC 12493 and E. coli is 0.2 mg/ml norfloxacin, 16 μM mellitin was used as C. albicans positive control and 0.2 mg/ml vancomycin as a positive control in ATCC 43300 MRSA strains. The solutions were incubated in 96-well plates used for measuring MICs followed for 18 h. The MBC values were assessed based on observations of the colony cultured on Muller-Hinton agar (MHA). The antimicrobial assay was performed in triplicate following the procedure applied in previous studies described ([Huang et al., 2017]).

MRSA ATCC 43300 [1] = type: cell-based, Methicillin-resistant Staphylococcus aureus; conditions: ATCC 43300, 18 h
Method: as §1

MRSA NCTC 12493 = type: cell-based, Methicillin-resistant Staphylococcus aureus; conditions: NCTC 12493, 18 h
Method: as §1

MRSA ATCC 43300 biofilm = type: cell-based, Methicillin-resistant Staphylococcus aureus; conditions: ATCC 43300, 48 h
Method: (§2) We evaluated the antibiofilm activity of the three AMPs by applying a crystal violet staining assay following previous research with minor modifications ([Chen et al., 2018]), to determine the minimal biofilm inhibitory concentrations (MBICs) and the minimal biofilm eradication concentrations (MBECs). The tested MRSA bacterial strains (NCTC 12493 and ATCC 43300) were incubated and diluted with MHB to achieve a bacterial concentration of 5 × 10^5 CFU/ml. The peptides were undergone a 2-fold dilution and were incubated with diluted MRSA to determine MBIC values. For the MBEC assay, the diluted bacterial culture was incubated for 48 h to obtain a fully grown biofilm, which was treated with various concentrations of peptides dissolved in MHB and incubated for 24 h at 37°C. The positive control in MBIC and MBEC determination is 0.2 mg/ml vancomycin for MRSA ATCC 43300 strain and the aliquote of norfloxacin for MRSA NCTC 12493.

MRSA NCTC 12493 biofilm = type: cell-based, Methicillin-resistant Staphylococcus aureus; conditions: NCTC 12493, 48 h
Method: as §2

[2] = test system: MRSA (ATCC 43300) biofilm formation; assay: Quantitative biofilm formation assay; type: cell-based, Methicillin-resistant Staphylococcus aureus
Method: Based on the previous study of quantitative biofilm formation assay ([Badmasti et al., 2015]; [Liu et al., 2020]), the crystal violet staining method with moderate modifications was applied for analyzing the capability of MRSA (ATCC 43300) forming biofilms when treated with different concentrations of peptides. Specifically, MRSA strain was cultured in MHB medium at 37°C overnight. Then the bacterial culture was subcultured in fresh MHB medium. The quantificational bacterial suspension (5 × 10^5 CFU/ml) was added into a 96-wells plate together with the tested peptides at different concentrations (2 × MBIC, 1 × MBIC, 1/2 × MBIC and 1/4 × MBIC). The MHB medium without bacteria was negative control and MRSA culture solution was the positive control. The cut-off optical density (ODc) was the mean ± deviation value of the absorbance of negative control at 595 nm. The biofilm formation ability of bacteria samples with different concentrations of peptides were divided into four groups: the negative biofilm formation (−) was the OD595nm ≤ ODc, the weak biofilm formation (+) was the ODc < OD595nm ≤ 2 × ODc, the moderate biofilm formation (++) represented the 2 × ODc < OD595nm ≤ 4 × ODc, and the strong biofilm formation (+++) indicated the OD595nm > 4 × ODc.

[3] = test system: defibrinated erythrocytes isolated from whole horse blood; type: cell-based; conditions: red cells of horse
Text: Following a previous study ([Huang et al., 2017]), we evaluated the hemolytic activity of three peptides using defibrinated erythrocytes isolated from whole horse blood (TCS Biosciences Ltd., Buckingham, United Kingdom). Phosphate-buffered saline (PBS) and 1% Triton X-100 were used as negative and positive controls, respectively, and 1% DMSO/PBS was used as the vehicle control. The HC50 and the therapeutic index (TI = HC50/the geometric mean of MICs against tested bacterial strains of peptide) were calculated to determine the therapeutic potential.

in vitro = type: cell-based; conditions: human
Method: Human keratinocyte cell line HaCaT (No.1101HUM-PUMC000373) was obtained from the National Infrastructure of Cell Line Resource (Beijing, China) and cultured in high-glucose Dulbecco’s modified Eagle medium (DMEM), containing 10% fetal bovine serum (FBS) and 1% penicillin and streptomycin (Thermo Fisher Scientific Co., Waltham, MA, United States). The grown cells were digested and quantificationally harvested in a 96-wells plate of cell density of 5 × 10^4×cells/ml. After 24 h incubation, the original medium in wells was replaced with fresh medium containing peptides with 2-fold serial dilution, the final concentrations of peptides ranging from […] to 1 μM. When the cells were treated with peptides for 24 h, the cell medium was changed into 100 μl of 10% CCK-8 solution and incubated for 4 h. The absorbance at 450 nm reflected the cell viability in each well. The growth control was cell culture without peptides and blank control was fresh DMEM without cells.

[4] = Circular-dichroism spectroscopy, helix content (BESTSEL); type: physicochemical; conditions: CD
Method: The physiochemical structural analysis entailed website prediction and circular-dichroism (CD) spectroscopy as described previously ([Liu et al., 2017]; [Sang et al., 2018]; [Zhou et al., 2019]). Briefly, temporin-FL and two analogues were dissolved in 10 mM NH4Ac or 10 mM NH4Ac with 50% 2,2,2-trifluoroethanol (TFE) to determine their conformation in different solutions. The 10 mM NH4Ac solution provides a pH stable buffering environment to stabilize peptides and also to prevent system noise and not interfere with CD signals. The results of the CD spectroscopy were inputted into the BESTSEL CD spectrum online analysis tool (http://bestsel.elte.hu/index.php). HeliQuest (https://heliquest.ipmc.cnrs.fr/), and I-Tasser (http://zhanglab.ccmb.med.umich.edu/I-TASSER) were respectively used to determine the helical wheels plots and to predict the 3D secondary structure.

C. albicans (NCYC 1467) = type: cell-based; conditions: NCYC 1467, 18 h
Method: as §1

E. coli (NCTC 10418) = type: cell-based; conditions: for Antimicrobial activity MBC / Antimicrobial activity MIC: NCTC 10418, 18 h
Method: as §1

[5] = test system: tested Gram-positive bacterial strains and fungi; type: cell-based; conditions: 18 h
Method: as §1

MRSA ATCC 43300 [6] = type: cell-based, Methicillin-resistant Staphylococcus aureus; conditions: not told
Method: The bactericidal activity of cationic peptides resulted from membrane disruption. DNA or RNA that leaked out of the cell was stained with SYTOX™ Green Nucleic Acid Stain (Invitrogen Life Technologies, Carlsbad, CA, United States). The MRSA ATCC 43300 bacterial strain was used to evaluate the membrane disruptive potency of the three peptides. The assay was performed according to the procedure described previously with some modifications ([Chen et al., 2018]). Peptides at different concentrations (4 × MIC, 2 × MIC and 1 × MIC) were incubated with the re-suspended bacterial solution at a concentration of 5 × 10^6 CFU/well in the 96-well black plate for 3 h without light. The positive control is 70% isopropanol. SYTOX green dye (the final concentration of 1%) was then added to each well, and the permeabilizing potency was measured as fluorescent intensity using a SpeactraMax i3x plate reader (Molecular Devices, CA, United States). All experiments were done in five replicates for statistical significance.

[7] = test system: MRSA (ATCC 43300) biofilm; assay: Scanning electron microscopy of MRSA biofilms; type: cell-based, Methicillin-resistant Staphylococcus aureus; conditions: 1 × MBEC, 24 h
Method: Silicon wafers were cut into small squares (5 mm × 5 mm) and placed at the bottom of a 24-well plate. Each well was then filled with 1 ml of sub-cultured MRSA (ATCC 43300) in MHB at a concentration of 5 × 10^5 CFU/ml and incubated at 37°C in a humid shaking incubator for 48 h to enable the formation of visible biofilms on the silicon wafers. Peptides at concentrations of 1 × MBEC and 4 × MBEC were incubated with PBS-washed MRSA biofilm for 24 h. After the incubation, the silicon wafer in each well was first washed in PBS and then fixed in 2.5% glutaraldehyde at 4°C for 4 h. The fixed biofilm was dehydrated using gradient ethanol solution (30, 50, 70, 80, 90, 95, and 100%) at 10-min intervals. The air-dried biofilm samples were coated with gold film using a LEICA-EM-ACE600 sputter coater instrument (Leica, Germany) and transferred to the field emission scanning electron microscopy (FESEM) system (ZEISS-SUPRA55, Germany) operating at 5 kV to observe the morphology of the peptide-treated biofilm.

Row | Substance | Antimicrobial activity MBC (S. aureus (NCTC 10788)) [µM] | Antimicrobial activity MIC (S. aureus (NCTC 10788)) [µM] | Antimicrobial activity MBC (MRSA ATCC 43300 [1]) [µM] | Antimicrobial activity MIC (MRSA ATCC 43300 [1]) [µM] | Antimicrobial activity MBC (MRSA NCTC 12493) [µM] | Antimicrobial activity MIC (MRSA NCTC 12493) [µM] | Antibiofilm activity MBEC (MRSA ATCC 43300 biofilm) [µM] | Antibiofilm activity MBIC (MRSA ATCC 43300 biofilm) [µM] | Antibiofilm activity MBEC (MRSA NCTC 12493 biofilm) [µM] | Antibiofilm activity MBIC (MRSA NCTC 12493 biofilm) [µM] | Hemolysis effect HC50 [3] [µM] | IC50 at 24 h (in vitro) [µM] | Antimicrobial activity MBC (C. albicans (NCYC 1467)) [µM] | Antimicrobial activity MIC (C. albicans (NCYC 1467)) [µM] | Antimicrobial activity MBC (E. coli (NCTC 10418)) [µM] | Antimicrobial activity MIC (E. coli (NCTC 10418)) [µM] | Membrane permeability ranking among the three peptides (MRSA ATCC 43300 [6]) | Membrane permeabilization, SYTOX Green fluorescent intensity (MRSA ATCC 43300 [6]) | further results
1 | H-FIPLVSGLFSKLL-NH2 [Temporin-FL, FIPLVSGLFSKLL-NH2] | 16 | 16 | 32 | 32 | 64 | 32 | 64 | 32 | 64 | 32 | 157.4 | 83.4 | 64 | 32 | 128 | 128 | moderate permeabilizing activity | relatively weak | Biofilm formation ([2]; MRSA ATCC 43300, peptide at 1/2× MBIC): ++ (the moderate biofilm formation (++) represented the 2 × ODc < OD595nm ≤ 4 × ODc); Biofilm formation ([2]; MRSA ATCC 43300, peptide at 1/4× MBIC): ++ (the moderate biofilm formation (++) represented the 2 × ODc < OD595nm ≤ 4 × ODc); Helix in NH4Ac ([4]; 10 mM NH4Ac): 16.7%; Helix in 50%TFE/NH4Ac ([4]; 10 mM NH4Ac with 50% TFE): 92.3%; Activity against Gram-negative bacteria E. coli (in words) (E. coli (NCTC 10418); E. coli): inactive; MICs against tested Gram-positive bacterial strains and fungi [5]: 16 to 32 µM; Biofilm disruption observed by SEM [7]: moderate bacterial colonies reduction
2 | FIPLVSGLFKLL-NH2 [Temporin-FLa, FIPLVSGLFKLL-NH2] | 8 | 4 | 8 | 4 | 16 | 4 | 8 | 4 | 32 | 8 | 74.02 | 46.6 | 32 | 8 | 128 | 128 | greatest permeability | highest fluorescent intensity | –
3 | FIPVSGLFKLL-NH2 [Temporin-FLb, FIPVSGLFKLL-NH2] | 16 | 8 | 128 | 64 | 32 | 16 | 128 | 64 | 128 | 64 | 356.0 | 375 | 128 | 32 | 128 | 128 | lowest | relatively weak | –
